Values quoted from earlier work, collected in US20170058282A1 (priority 2015, published 2017).

System: heme sensor system HssRS (histidine kinase HssS / response regulator HssR)
Settings: natural HssRS; cited from earlier work

C=CC1=C(C)c2cc3[nH]c(cc4nc(cc5[nH]c(cc1n2)c(C)c5CCC(=O)O)C(CCC(=O)O)=C4C)c(C)c3C=C.[Fe+2] [heme]
responsive concentrations of heme: sub-μM
